In patent US20100305202A1, “LYOPHILIZED PHARMACEUTICAL COMPOSITION WITH IMPROVED STABILITY CONTAINING TAXANE DERIVATIVES, AND METHOD OF MANUFACTURING THE SAME” (priority 2007, published 2010):

Columns and labels:
[1] = Solubility of docetaxel in distilled water with PVP and HPBCD (Experimental Example 1); format: physicochemical
Method: The solubility of docetaxel was measured by performing liquid chromatography with UV detector (230 nm).
The solubility of docetaxel in distilled water proportionally increases between 10% and 30% of weight ratio (w/v %) of hydroxypropyl β-cyclodextrin (HPBCD).
Further, the ratio of HPBCD relative to docetaxel was at least 1:11 and the concentration of HPBCD will be lowered if the concentration unit (w/v) is converted into (mg/mL) unit. Therefore, docetaxel may be solubilized even when the ratio of docetaxel:HPBCD becomes smaller than 1:11. Therefore, according to the present invention, it is preferable to use more than 1 part by weight of hydroxypropyl β-cyclodextrin (HPBCD), and more preferably 5 parts by weight relative to 1 part by weight of the taxoid.

[2] = no additive; cited from earlier work

## CC(=O)O[C@@]12CO[C@@H]1C[C@H](O)[C@@]1(C)C(=O)[C@H](O)C3=C(C)[C@@H](OC(=O)[C@H](O)[C@@H](NC(=O)OC(C)(C)C)c4ccccc4)C[C@@](O)([C@@H](OC(=O)c4ccccc4)[C@H]21)C3(C)C [docetaxel]
[1]; 31.1 mg/mL versus 0.000025 mg/mL
  better solubility with HPBCD versus distilled water: 1.2 million
[1]; with hydroxypropyl β-cyclodextrin (HPBCD)
  solubility of docetaxel added with HPBCD in distilled water: 31.1 mg/mL
[2]
  commonly known solubility of docetaxel in distilled water: 0.025 µg/mL
